Source: US10597387B2, “Methods to treat lymphoplasmacytic lymphoma” (Dana-Farber Cancer Institute, Inc., priority 2013, dated 2020)
Where two headings read alike, the source gives them in different places.

Key:
Assay in all cases: KiNativ kinase profiling
SYK = SYK (Homo sapiens (Human), UniProt P43405); type: binding; details: read-out: inhibition of kinase labeling
eEF2K = eEF2K (Homo sapiens (Human), UniProt O00418); type: binding; details: ATP, A375 cells, read-out: inhibition of kinase labeling
STLK6 = STLK6 (Homo sapiens (Human), UniProt Q9C0K7); type: binding; details: Lys2, A375 cells, read-out: inhibition of kinase labeling
TEC = TEC (Homo sapiens (Human), UniProt P42680); type: binding; details: Activation Loop, A375 cells, read-out: inhibition of kinase labeling
AurA = AurA (Homo sapiens (Human), UniProt O14965); type: binding; details: Lys2, A375 cells, read-out: inhibition of kinase labeling
MAP3K4 = MAP3K4 (Homo sapiens (Human), UniProt Q9Y6R4); type: binding; details: Lys2, A375 cells, read-out: inhibition of kinase labeling
SLK = SLK (Homo sapiens (Human), UniProt Q9H2G2); type: binding; details: Lys2, A375 cells, read-out: inhibition of kinase labeling
JAK1 domain2 = JAK1 domain2 (Homo sapiens (Human), UniProt P23458); type: binding; details: Lys1, A375 cells, read-out: inhibition of kinase labeling
Erk1 = Erk1 (Homo sapiens (Human), UniProt P27361); type: binding; details: Lys2, A375 cells, read-out: inhibition of kinase labeling
PKR = PKR (Homo sapiens (Human), UniProt P19525); type: binding; details: Lys2, A375 cells, read-out: inhibition of kinase labeling
PIP5K3 = PIP5K3 (Homo sapiens (Human), UniProt Q9Y2I7); type: binding; details: ATP, A375 cells, read-out: inhibition of kinase labeling
CK1g1 = CK1g1 (Homo sapiens (Human), UniProt Q9HCP0); type: binding; details: Lys2, A375 cells, read-out: inhibition of kinase labeling
FYN, SRC, YES = type: binding, Homo sapiens; details: Activation Loop, 1 μM, A375 cells
PIK3C3 = PIK3C3 (Homo sapiens (Human), UniProt Q8NEB9); type: binding; details: ATP, A375 cells, read-out: inhibition of kinase labeling
IKKe = IKKe (Homo sapiens (Human), UniProt Q14164); type: binding; details: Lys1, A375 cells, read-out: inhibition of kinase labeling
NDR1 = NDR1 (Homo sapiens (Human), UniProt Q15208); type: binding; details: Lys1, A375 cells, read-out: inhibition of kinase labeling
AurB = AurB (Homo sapiens (Human), UniProt Q96GD4); type: binding; details: Lys1, A375 cells, read-out: inhibition of kinase labeling
TLK2 = TLK2 (Homo sapiens (Human), UniProt Q86UE8); type: binding; details: Lys2, A375 cells, read-out: inhibition of kinase labeling
LKB1 = LKB1 (Homo sapiens (Human), UniProt Q15831); type: binding; details: Lys2, A375 cells, read-out: inhibition of kinase labeling
AMPKa1, AMPKa2 = type: binding, Homo sapiens; details: Lys1, 1 μM, A375 cells
RSK1 domain1 = RSK1 domain1 (Homo sapiens (Human), UniProt Q15418); type: binding; details: Lys2, A375 cells, read-out: inhibition of kinase labeling
ULK3 = ULK3 (Homo sapiens (Human), UniProt Q6PHR2); type: binding; details: Lys1, A375 cells, read-out: inhibition of kinase labeling
PITSLRE = type: binding, Homo sapiens; details: Lys2, 1 μM, A375 cells
BRAF = BRAF (Homo sapiens (Human), UniProt P15056, V600E); type: binding; details: Lys2, A375 cells, read-out: inhibition of kinase labeling
NEK3 = NEK3 (Homo sapiens (Human), UniProt P51956); type: binding; details: Activation Loop, A375 cells, read-out: inhibition of kinase labeling
JNK1, JNK2, JNK3 = type: binding, Homo sapiens; details: Lys2, 1 μM, A375 cells
NEK6, NEK7 = type: binding, Homo sapiens; details: Lys2, 1 μM, A375 cells
IKKe, TBK1 = type: binding, Homo sapiens; details: Lys2, 1 μM, A375 cells
p38d, p38g = type: binding, Homo sapiens; details: Lys2, 1 μM, A375 cells
NEK9 = NEK9 (Homo sapiens (Human), UniProt Q8TD19); type: binding; details: Lys2, A375 cells, read-out: inhibition of kinase labeling
LOK = LOK (Homo sapiens (Human), UniProt O94804); type: binding; details: Lys2, A375 cells, read-out: inhibition of kinase labeling
PIP4K2C = PIP4K2C (Homo sapiens (Human), UniProt Q8TBX8); type: binding; details: ATP, A375 cells, read-out: inhibition of kinase labeling
MAP2K5 = MAP2K5 (Homo sapiens (Human), UniProt Q13163); type: binding; details: Lys2, A375 cells, read-out: inhibition of kinase labeling
STLK5 = STLK5 (Homo sapiens (Human), UniProt Q7RTN6); type: binding; details: Activation Loop, A375 cells, read-out: inhibition of kinase labeling
MAP3K2, MAP3K3 = type: binding, Homo sapiens; details: Lys2, 1 μM, A375 cells
ABL, ARG = type: binding, Homo sapiens; details: Activation Loop, 1 μM, A375 cells
PKCi = PKCi (Homo sapiens (Human), UniProt P41743); type: binding; details: Lys2, A375 cells, read-out: inhibition of kinase labeling
CDK11, CDK8 = type: binding, Homo sapiens; details: Lys2, 1 μM, A375 cells
PLK1 = PLK1 (Homo sapiens (Human), UniProt P53350); type: binding; details: Lys1, A375 cells, read-out: inhibition of kinase labeling
JAK1 = JAK1 (Homo sapiens (Human), UniProt P23458); type: binding; details: Protein Kinase Domain, A375 cells, read-out: inhibition of kinase labeling
MARK1, MARK2 = type: binding, Homo sapiens; details: Lys1, 1 μM, A375 cells

PIP4K2C, sequence (Q8TBX8 whole entry): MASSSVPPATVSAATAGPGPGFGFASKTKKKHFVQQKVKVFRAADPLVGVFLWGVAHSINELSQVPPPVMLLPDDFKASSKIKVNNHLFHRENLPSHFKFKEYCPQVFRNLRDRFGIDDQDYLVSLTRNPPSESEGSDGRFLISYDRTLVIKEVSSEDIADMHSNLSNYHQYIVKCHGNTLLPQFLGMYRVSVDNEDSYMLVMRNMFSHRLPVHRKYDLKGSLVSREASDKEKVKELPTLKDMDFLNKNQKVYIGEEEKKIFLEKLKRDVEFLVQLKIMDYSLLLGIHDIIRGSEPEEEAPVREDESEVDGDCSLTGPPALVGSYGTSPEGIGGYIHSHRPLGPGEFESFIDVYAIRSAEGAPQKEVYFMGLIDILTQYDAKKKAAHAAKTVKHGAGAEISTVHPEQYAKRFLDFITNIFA
STLK6, sequence (Q9C0K7 whole entry): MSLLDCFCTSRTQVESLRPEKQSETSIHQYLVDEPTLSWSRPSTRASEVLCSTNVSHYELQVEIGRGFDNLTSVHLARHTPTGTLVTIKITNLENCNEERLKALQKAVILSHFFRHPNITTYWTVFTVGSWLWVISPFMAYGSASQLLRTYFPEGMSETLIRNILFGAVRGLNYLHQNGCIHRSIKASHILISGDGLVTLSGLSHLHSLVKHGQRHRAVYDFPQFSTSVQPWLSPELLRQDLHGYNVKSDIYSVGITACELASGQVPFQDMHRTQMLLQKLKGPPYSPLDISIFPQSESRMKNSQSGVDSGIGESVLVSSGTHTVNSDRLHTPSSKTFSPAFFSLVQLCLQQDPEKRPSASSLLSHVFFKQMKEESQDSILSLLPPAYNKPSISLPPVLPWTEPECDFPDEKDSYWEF
TLK2, sequence (Q86UE8 whole entry): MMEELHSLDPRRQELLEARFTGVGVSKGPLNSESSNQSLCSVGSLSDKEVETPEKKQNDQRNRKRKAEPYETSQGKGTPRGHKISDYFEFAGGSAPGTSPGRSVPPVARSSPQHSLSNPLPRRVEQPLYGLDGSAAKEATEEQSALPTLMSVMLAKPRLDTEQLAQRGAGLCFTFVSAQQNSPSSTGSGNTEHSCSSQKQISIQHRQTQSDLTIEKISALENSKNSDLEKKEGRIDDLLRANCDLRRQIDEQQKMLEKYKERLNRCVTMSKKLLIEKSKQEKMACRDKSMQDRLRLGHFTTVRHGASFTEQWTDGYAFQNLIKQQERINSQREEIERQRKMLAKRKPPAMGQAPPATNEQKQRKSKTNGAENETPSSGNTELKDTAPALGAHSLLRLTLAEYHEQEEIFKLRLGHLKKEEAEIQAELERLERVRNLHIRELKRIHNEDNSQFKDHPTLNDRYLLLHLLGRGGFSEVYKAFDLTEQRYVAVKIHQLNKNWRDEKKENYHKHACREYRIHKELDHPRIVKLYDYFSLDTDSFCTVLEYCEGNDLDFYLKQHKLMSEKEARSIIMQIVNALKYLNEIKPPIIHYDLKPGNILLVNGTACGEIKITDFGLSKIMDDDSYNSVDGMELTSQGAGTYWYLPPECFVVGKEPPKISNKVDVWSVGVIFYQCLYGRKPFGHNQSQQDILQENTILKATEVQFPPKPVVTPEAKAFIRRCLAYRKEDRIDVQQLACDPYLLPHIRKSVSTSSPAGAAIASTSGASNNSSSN
ULK3, sequence (Q6PHR2 whole entry): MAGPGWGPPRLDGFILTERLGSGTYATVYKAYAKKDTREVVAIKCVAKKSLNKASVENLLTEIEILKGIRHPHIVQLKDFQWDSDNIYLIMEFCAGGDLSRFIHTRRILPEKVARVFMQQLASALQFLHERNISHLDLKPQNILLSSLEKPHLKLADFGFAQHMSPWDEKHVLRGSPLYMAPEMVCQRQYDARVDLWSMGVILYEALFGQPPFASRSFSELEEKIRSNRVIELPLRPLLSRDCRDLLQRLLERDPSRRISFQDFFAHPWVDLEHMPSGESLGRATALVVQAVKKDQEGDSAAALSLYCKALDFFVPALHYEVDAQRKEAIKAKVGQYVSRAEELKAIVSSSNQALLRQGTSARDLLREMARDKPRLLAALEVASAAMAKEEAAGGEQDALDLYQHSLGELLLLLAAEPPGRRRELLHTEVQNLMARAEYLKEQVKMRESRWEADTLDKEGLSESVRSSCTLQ
CK1g1, sequence (Q9HCP0 whole entry): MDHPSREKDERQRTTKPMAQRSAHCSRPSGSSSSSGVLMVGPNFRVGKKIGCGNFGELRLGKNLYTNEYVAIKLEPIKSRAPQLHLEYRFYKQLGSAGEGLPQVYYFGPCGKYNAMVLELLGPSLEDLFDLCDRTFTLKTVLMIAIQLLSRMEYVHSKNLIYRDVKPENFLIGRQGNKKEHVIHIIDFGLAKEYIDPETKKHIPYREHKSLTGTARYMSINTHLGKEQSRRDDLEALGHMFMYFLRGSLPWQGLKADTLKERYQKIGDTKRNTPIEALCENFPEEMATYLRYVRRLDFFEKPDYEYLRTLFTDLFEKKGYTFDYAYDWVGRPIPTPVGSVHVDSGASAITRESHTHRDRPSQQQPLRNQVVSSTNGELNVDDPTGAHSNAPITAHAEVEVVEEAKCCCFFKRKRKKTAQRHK
NDR1, sequence (Q15208 whole entry): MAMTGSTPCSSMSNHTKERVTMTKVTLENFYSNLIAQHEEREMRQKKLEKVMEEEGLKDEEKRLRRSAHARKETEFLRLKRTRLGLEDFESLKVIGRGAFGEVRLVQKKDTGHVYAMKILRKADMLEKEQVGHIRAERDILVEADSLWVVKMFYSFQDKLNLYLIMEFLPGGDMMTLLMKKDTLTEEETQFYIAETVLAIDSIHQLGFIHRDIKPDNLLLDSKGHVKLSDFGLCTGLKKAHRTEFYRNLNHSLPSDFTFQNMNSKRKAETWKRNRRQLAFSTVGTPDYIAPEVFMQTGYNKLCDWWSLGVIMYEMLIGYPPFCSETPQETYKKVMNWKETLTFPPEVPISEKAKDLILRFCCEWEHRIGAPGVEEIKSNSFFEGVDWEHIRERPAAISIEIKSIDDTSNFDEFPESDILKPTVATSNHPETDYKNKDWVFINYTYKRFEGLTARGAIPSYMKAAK
RSK1 domain1, sequence (Q15418 whole entry, the tested form may be a part): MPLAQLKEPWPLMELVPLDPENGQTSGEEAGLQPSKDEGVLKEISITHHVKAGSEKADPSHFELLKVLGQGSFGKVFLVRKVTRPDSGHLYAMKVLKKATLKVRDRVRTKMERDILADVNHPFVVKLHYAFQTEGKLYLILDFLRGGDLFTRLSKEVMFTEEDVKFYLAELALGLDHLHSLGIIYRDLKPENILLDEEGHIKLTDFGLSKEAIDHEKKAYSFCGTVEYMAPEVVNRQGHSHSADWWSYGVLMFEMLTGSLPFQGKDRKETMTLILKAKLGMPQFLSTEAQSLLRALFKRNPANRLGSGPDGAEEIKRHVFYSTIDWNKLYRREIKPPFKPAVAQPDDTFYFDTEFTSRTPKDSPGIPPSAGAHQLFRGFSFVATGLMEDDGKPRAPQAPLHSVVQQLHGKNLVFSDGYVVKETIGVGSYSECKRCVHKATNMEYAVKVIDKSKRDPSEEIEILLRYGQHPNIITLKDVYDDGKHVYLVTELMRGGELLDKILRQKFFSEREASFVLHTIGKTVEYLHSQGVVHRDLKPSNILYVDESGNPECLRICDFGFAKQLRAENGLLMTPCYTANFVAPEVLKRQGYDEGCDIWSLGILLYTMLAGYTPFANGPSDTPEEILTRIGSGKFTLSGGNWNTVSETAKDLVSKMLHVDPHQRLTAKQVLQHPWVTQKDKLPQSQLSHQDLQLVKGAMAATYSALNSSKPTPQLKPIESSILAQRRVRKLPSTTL
PKR, sequence (P19525 whole entry): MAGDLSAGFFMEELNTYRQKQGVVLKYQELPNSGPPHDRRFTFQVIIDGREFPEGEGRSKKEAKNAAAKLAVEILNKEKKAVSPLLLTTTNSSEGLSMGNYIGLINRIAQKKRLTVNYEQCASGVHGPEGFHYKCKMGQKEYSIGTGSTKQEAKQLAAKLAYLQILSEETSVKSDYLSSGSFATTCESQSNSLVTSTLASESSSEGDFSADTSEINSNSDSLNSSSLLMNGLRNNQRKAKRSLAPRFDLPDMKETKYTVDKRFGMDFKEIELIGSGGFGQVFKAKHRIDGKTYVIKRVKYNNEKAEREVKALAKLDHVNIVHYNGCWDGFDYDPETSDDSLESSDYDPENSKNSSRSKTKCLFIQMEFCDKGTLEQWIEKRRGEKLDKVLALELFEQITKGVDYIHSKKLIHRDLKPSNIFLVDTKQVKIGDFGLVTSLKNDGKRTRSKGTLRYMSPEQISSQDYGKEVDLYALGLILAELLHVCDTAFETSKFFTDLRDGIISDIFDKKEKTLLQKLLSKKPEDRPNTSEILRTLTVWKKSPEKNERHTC
NEK3, sequence (P51956 whole entry): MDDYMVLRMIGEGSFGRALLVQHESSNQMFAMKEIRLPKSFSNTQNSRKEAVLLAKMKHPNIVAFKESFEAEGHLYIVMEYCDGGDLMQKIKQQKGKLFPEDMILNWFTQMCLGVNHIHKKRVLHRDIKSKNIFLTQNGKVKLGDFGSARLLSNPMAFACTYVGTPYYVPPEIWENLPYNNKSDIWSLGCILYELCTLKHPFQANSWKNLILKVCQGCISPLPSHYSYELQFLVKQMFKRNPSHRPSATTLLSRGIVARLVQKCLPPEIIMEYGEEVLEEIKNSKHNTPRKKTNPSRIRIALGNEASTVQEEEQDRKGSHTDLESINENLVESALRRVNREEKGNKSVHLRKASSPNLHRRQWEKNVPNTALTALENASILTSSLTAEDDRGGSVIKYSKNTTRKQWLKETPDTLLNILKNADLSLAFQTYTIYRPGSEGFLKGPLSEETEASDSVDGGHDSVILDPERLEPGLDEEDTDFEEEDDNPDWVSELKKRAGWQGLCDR

Compound Cc1ccc(C(=O)Nc2cccc(C(C)(C)C#N)c2)cc1NC(=O)c1cncc(-c2cccs2)c1 [I-6, N-(5-((3-(2-cyanopropan-2-yl)phenyl)carbamoyl)-2-methylphenyl)-5-(thiophen-2-yl)nicotinamide] has an inhibition at 1 µM (SYK; Activation Loop, A375 cells) of -7.9%, an inhibition at 1 µM (SYK; Lys1, A375 cells) of -38.5% and an inhibition at 1 µM (eEF2K) of 12%. The inhibition at 1 µM (STLK6) was 44.8%, the inhibition at 1 µM (TEC) was -28.9% and the inhibition at 1 µM (AurA) was -21.6%. The inhibition at 1 µM (MAP3K4) was 6.5%, the inhibition at 1 µM (SLK) was -19.5% and the inhibition at 1 µM (JAK1 domain2) was 3.3%. For the same compound, the inhibition at 1 µM (Erk1) was -3%, the inhibition at 1 µM (PKR) was 3.2% and the inhibition at 1 µM (PIP5K3) was 17.8%. The inhibition at 1 µM (CK1g1) was 14.4%, the “inhibition of kinase labeling” value (FYN, SRC, YES) was 55.7% and the inhibition at 1 µM (PIK3C3) was -23.1%. For the same compound, the inhibition at 1 µM (IKKe) was 3.8%, the inhibition at 1 µM (NDR1) was -10.5% and the inhibition at 1 µM (AurB) was -94%. The inhibition at 1 µM (TLK2) was -18.8%, the inhibition at 1 µM (LKB1) was 4.9% and the “inhibition of kinase labeling” value (AMPKa1, AMPKa2) was 15.3%. For the same compound, the inhibition at 1 µM (RSK1 domain1) was 33.3%, the inhibition at 1 µM (ULK3) was -21.5% and the “inhibition of kinase labeling” value (PITSLRE) was 1.9%. The inhibition at 1 µM (BRAF) was -20.3%, the inhibition at 1 µM (NEK3) was 10% and the “inhibition of kinase labeling” value (JNK1, JNK2, JNK3) was 11.7%. The “inhibition of kinase labeling” value (NEK6, NEK7) was −3.7%, the “inhibition of kinase labeling” value (IKKe, TBK1) was 24.8% and the “inhibition of kinase labeling” value (p38d, p38g) was 17.8%. It also gave an inhibition at 1 µM (NEK9) of -0.3%, an inhibition at 1 µM (LOK) of 23.9% and an inhibition at 1 µM (PIP4K2C) of 12.3%. For the same compound, the inhibition at 1 µM (MAP2K5) was 28.7%, the inhibition at 1 µM (STLK5) was -17.8% and the “inhibition of kinase labeling” value (MAP3K2, MAP3K3) was −15.3%. The “inhibition of kinase labeling” value (ABL, ARG) was greater than 90%, the inhibition at 1 µM (PKCi) was -17.5% and the “inhibition of kinase labeling” value (CDK11, CDK8) was 20.7%. The inhibition at 1 µM (PLK1) was -5.4%, the inhibition at 1 µM (JAK1) was 16.6% and the “inhibition of kinase labeling” value (MARK1, MARK2) was −4.9%.
